What was measured:
[1] = test system: MDCK; conditions: MDCK cells, microscopically visible alteration of cell morphology
[2] = test system: VZV (OKA & 07/1); test: VZV plaque formation assay in HEL cells; type: cell-based, varicella-zoster virus; conditions: Human alphaherpesvirus 3, HEL, 120 h, read-out: EC50 VZV (OKA & 07/1)
[3] = test system: HeLa; conditions: HeLa cells, microscopically visible alteration of cell morphology
[4] = test system: Vero; conditions: Vero cells, microscopically visible alteration of cell morphology
[5] = test system: Parainfluenza-3 virus; test: Virus-induced cytopathicity, parainfluenza-3 virus in Vero cells; type: cell-based; conditions: read-out: EC50 Parainfluenza-3 virus
[6] = test system: HEL; conditions: HEL cells, microscopically visible alteration of cell morphology
[7] = test system: Reovirus-1; test: Virus-induced cytopathicity, reovirus-1 in Vero cells; type: cell-based; conditions: read-out: EC50 Reovirus-1
[8] = test system: RSV; test: Virus-induced cytopathicity, RSV in HeLa cells; type: cell-based; conditions: human respiratory syncytial virus, read-out: EC50 RSV
[9] = test system: Influenza virus (AH3N2); test: Virus-induced cytopathicity, influenza A H3N2 in MDCK cells; type: cell-based; conditions: unidentified influenza virus, read-out: EC50 Influenza virus (AH3N2)
[10] = test system: Influenza virus B; test: Virus-induced cytopathicity, influenza B in MDCK cells; type: cell-based; conditions: unidentified influenza virus, read-out: EC50 Influenza virus B

| SMILES | MCC (minimal cytotoxic concentration) MDCK [1] [µM] | EC50 [2] [µM] | MCC (minimal cytotoxic concentration) HeLa [3] [µM] | MCC (minimal cytotoxic concentration) Vero [4] [µM] | EC50 [5] [µM] | MCC (minimal cytotoxic concentration) HEL [6] [µM] | EC50 [7] [µM] | EC50 [8] [µM] | EC50 [9] [µM] | EC50 [10] [µM] |
| --- | --- | --- | --- | --- | --- | --- | --- | --- | --- | --- |
| Nc1nc2c(sc3ncn([C@H]4C[C@H](O)[C@@H](CO)O4)c32)c(=O)[nH]1 [Compound 5, 1-[(5-Aminoimidazo[4′,5′:4,5]thieno[3,2-d]pyrimidin-3-yl-7-one)]-β-D-2′-deoxyribofuranose] | 0.8 | 71.3 to 100 | 100 | 100 | > 100 | >100 | > 100 | – | – | – |
| Nc1ncnc2c1sc1ncn([C@H]3C[C@H](O)[C@@H](CO)O3)c12 [Compound 6, 1-[(7-aminoimidazo[4′,5′:4,5]thieno[3,2-d]pyrimidin-3-yl)]-β-D-2′-deoxyribofuranose] | 20 | – | >100 | >100 | > 100 | ≥20 | – | – | – | – |
| NC(=O)c1ncn([C@@H]2O[C@H](CO)[C@@H](O)[C@H]2O)n1 [Ribavirin] | – | – | – | – | – | – | > 250 | 10 | 5.1 to 9 | 4.5 to 9 |

Reference: paper PMC3727052 (Bioorganic & medicinal chemistry, 2012)
